Source: US7972615B2, “Peptide compositions for coating metal medical devices with vancomycin” (Affinergy, Inc., priority 2008, dated 2011)
Square brackets hold non-standard residues; d marks the D form. Ends that are not written are not given here. miniPeg = miniPEG linker unit; Aun = NCCCCCCCCCCC(=O)O

Columns and labels:
[1] = assay type: binding; conditions: FIG. 1; 18 hour incubation in 10% BSA+10 mM guanidinium chloride
Description: In this example, illustrated are unexpected beneficial properties of the composition of the invention, including but not limited to, one or more improved biophysical properties. Such one or more unexpected beneficial properties of a composition of the invention may comprise an increase in stability. An increase in stability may comprise any one or more of resistance to chemical denaturation, resistance to proteolytic degradation, improved retention to a substrate (e.g., resistance to being competed off a substrate to which it is bound, such as by proteins or other biomolecules found in body tissues). Thus, to ascertain a beneficial property of a composition of the invention, it is compared to the properties of a component of the composition-namely, a substrate-binding peptide by itself (e.g., without fatty acid covalently coupled thereto). An assay was developed that, from our direct comparisons (see, e.g., discussion of FIG. 2 below, and Example 7 herein), mimicked the effect of incubation of substrate-binding peptide with human plasma on stability of binding of a substrate-binding peptide to its substrate. The assay utilized incubations in the presence of 10% bovine serum album (BSA) with 10 mM guanidinium chloride. The high BSA concentration mimics the elevated albumin content of human plasma, and the guanidinium chloride is used to compete with any charged interactions involved in binding of the substrate-binding peptide to its substrate.
In this assay, two immunoassay plates were prepared for a “side-by-side” comparison of binding of a test sample (substrate-binding peptide or composition of the invention) to its substrate with or without the presence of 10% BSA with 10 mM guanidinium chloride. The wells of each 96-well polypropylene plate were incubated with 350 μl BSA 1% in PBS for 30 minutes at 20° C. with 500 rpm shaking. To each well was added one acetone-cleaned 3/32″ 316LVM stainless steel bead, followed by addition of dilutions in PBS of the test sample in a range of concentrations starting from 10 μM. Final volume in each well was 200 μl. The plates were incubated for 1 hour at 20° C. with 500 rpm shaking to allow for the binding to occur. The beads were washed 3 times with 250 μl PBS using a plate washer. […]
In the immunoassay for detecting binding without the presence of 10% BSA with 10 mM guanidinium chloride, added to each well was 200 μl of streptavidin AP (AP is alkaline phosphatase) at 1/200 in TBS+1% BSA. […] When color has developed, each well was read at OD405 nm in endpoint mode using a plate reader. […] When color has developed, the wells were read at OD405 nm in endpoint mode using a plate reader. […]

[2] = Vancomycin loading onto titanium bead, HPLC of HCl eluate; assay type: binding; conditions: components mixed with vancomycin, 30 mins at 20° C., washed three times
Protocol: The experimental procedure used for the embodiments described above was as follows. […] All three components were mixed and then applied to the metal bead. […] All three components were mixed and then applied to the metal bead. […] The mixtures were applied to the metal beads and incubated for 30 mins at 20° C. with 700 rpm shaking. The beads were washed three times with 350ul PBS. Beads were analyzed as follows: 200 ul of 100 mM HCl was added to each bead and incubated for 30 mins at 20° C. with 1,000 rpm shaking. The eluate from each bead was analyzed by HPLC using Phenomenex Luna 3 um column, 50×4.60 mm. Output was compared to a standard curve for vancomycin to determine the amount of vancomycin retained onto the metal bead.

[3] = Critical micelle concentration (CMC) assay with methyl orange; assay type: physicochemical; conditions: pH 7 PBS, A484
Protocol: Formation of a composition of the invention, and evidence of macromolecular network formation, may be monitored or quantified by any means known in the art. In this example, macromolecular formation was detected using a standard assay for determining critical micelle concentration (“CMC”). In this assay, a solution containing the composition of the invention (in a range of concentrations in pH 7 phosphate buffered saline (“PBS”)) was mixed with a solution of methyl orange (0.04 mM in PBS), and the absorbance of the mixture was measured at 484 nm (A484). CMC is the concentration at which a sharp decrease in absorbance at A484 is observed, a change in the optical properties of methyl orange when trapped in a hydrophobic phase, such as caused by self-association as a macromolecular network (Table 7, “CMC”). Also included in this assay were an assay control peptide having an amino acid sequence of SEQ ID NO:122 (Table 7, “Control”), and compound 119 (a PEGylated peptide, the peptide having an amino acid sequence of SEQ ID NO:122, as described in more detail in Example 6 herein).

[4] = Stent flow model (in vitro model for in vivo stability on a stent); assay type: binding; conditions: radiolabelled
Protocol: In this example, an in vitro model for in vivo stability on a medical device comprising a stent was performed. The stent flow model included a “circulatory system” comprising a peristaltic pump and clear silicone tubing into which is placed a stent (8 mm, stainless steel) coated with a composition according to the invention. Coating of the stents was accomplished by incubating the stents with radiolabelled composition 132 (specific activity 2,400 cpm/pmole at 20 μM in PBS) for 1 hour at 20° C., followed by extensive washing with buffer. […] In another variation of the stent flow model, 10% BSA+10 mM guanidinium chloride was circulated through the circulatory system at a flow rate of 5 ml/min for 18 hours at 37° C. After circulation in the respective variations of the stent flow model, the coated stents were then counted for radioactivity. To serve as an assay “control”, some coated stents were not placed in the stent flow model, but rather counted for radioactive counts to provide a reference from which percent retention could be calculated for those coated stents included in the stent flow model.

AUD-AUD-AUD-AUD-SEQ ID NO: 122 ([Aun][Aun][Aun][Aun]SSHRTNHKKNNPKKKNKTRGSSGK) [Compound 122]
retention of binding of substrate-binding peptide component to its substrate, compared to substrate-binding peptide alone (SEQ ID NO: 122) [1]: significantly improved retention

AUD-AUD-K-AUD-AUD-AUD-AUD-SEQ ID NO: 122 ([Aun][Aun]K[Aun][Aun][Aun][Aun]SSHRTNHKKNNPKKKNKTRGSSGK) [Compound 123]
retention of binding of substrate-binding peptide component to its substrate, compared to substrate-binding peptide alone (SEQ ID NO: 122) [1]: significantly improved retention

SSSCLIDMYGVCHNFDGAYDSSRG-miniPeg-miniPeg-SSHRTNHKKNNPKKKNKTRGSSGK (SSSCLIDMYGVCHNFDGAYDSSRG[miniPeg][miniPeg]SSHRTNHKKNNPKKKNKTRGSSGK; cysteine pairing not given here) [SEQ ID NO: 163]
Vancomycin Load [2]: 54 pmol/cm2

120: amino acid sequence YWAWAYAW (SEQ ID NO:129) covalently coupled to a peptide having the amino acid sequence of SEQ ID NO:122 (YWAWAYAWSSHRTNHKKNNPKKKNKTRGSSGK) [Compound 120, reference compound]
retention of binding of substrate-binding peptide component to its substrate, compared to substrate-binding peptide alone (SEQ ID NO: 122) [1]: failed to promote retention

AUD-AUD-AUD-AUD-AUD-AUD-SEQ ID NO: 122 ([Aun][Aun][Aun][Aun][Aun][Aun]SSHRTNHKKNNPKKKNKTRGSSGK) [Compound 130]
CMC [3]: 0.041 µM

119: Fmoc-NH-(PEG)27-CO2H covalently coupled to a peptide having the amino acid sequence of SEQ ID NO:122 (PEGylated peptide) (SSHRTNHKKNNPKKKNKTRGSSGK; not fully specified (N-terminus); also: Fmoc-NH-(PEG)27-CO2H covalently coupled, site not given here) [Compound 119, reference compound]
retention of binding of substrate-binding peptide component to its substrate, compared to substrate-binding peptide alone (SEQ ID NO: 122) [1]: failed to promote retention

MA-Ahx-SSCLIDIYGVCHN FDAY-miniPeg-miniPeg-HKKNNPKKKNKTRGSSK(Biotin) [SEQ ID NO: 164]
Vancomycin Load [2]: 278 pmol/cm2

Ac-Y-AUD-AUD-AUD-AUD-AUD-AUD-SEQ ID NO: 122 (Ac-Y[Aun][Aun][Aun][Aun][Aun][Aun]SSHRTNHKKNNPKKKNKTRGSSGK) [Compound 132]
composition remained bound to the coated stents ([4]; 10% BSA+10 mM guanidinium chloride circulated at 5 ml/min for 18 hours at 37° C.): over 90%
composition remained bound to the coated stents ([4]; human plasma circulated at 5 ml/min for 7 days at 37° C.): over 90%
